Laboratory results: patent US12011431B2, “Pharmaceutical composition for preventing or treating sensorineural hearing loss, containing forskolin and retinoic acid as active ingredients” (AJOU UNIVERSITY INDUSTRY-ACADEMIC COOPERATION FOUNDATION, priority 2018, dated 2024)

How the values were obtained:
[1] = system: HEI-OCl cells; experiment: Inhibition of cisplatin-induced apoptosis in auditory cell line (calcein AM, cleaved PARP and caspase 3); type: cell-based; conditions: cisplatin 25 μM
Experimental: An auditory cell line expressing auditory genes (HEI-OCl; House-Ear Institute-organ of Corti 1) was used, and the HEI-OCl cells were incubated in DMEM medium (Dulbecco's modified Eagle's Medium) containing a high concentration of glutamine, supplemented with 10% fetal bovine serum (FBS) and 25 U/ml of interferon gamma at 33° C. and 10% CO2. The cells were treated with cisplatin at a concentration of 25 μM, and the effects of forskolin and retinoic acid were analyzed under conditions in which about 40 to 50% of cells were killed by cisplatin ototoxicity. In order to analyze the effects of forskolin and retinoic acid on ototoxicity, experimental groups were classified into (1) normal, (2) forskolin, (3) retinoic acid, (4) cisplatin, (5) cisplatin+forskolin, (6) cisplatin+retinoic acid, (7) cisplatin+forskolin+retinoic acid. Cisplatin was administered in an amount of 25 μM, forskolin was administered in an amount of 20 μM, and retinoic acid was administered in an amount of 50 μM. Then, viable cells were observed using calcein AM, a fluorescent stain applicable to live cells, and cleaved PARP and caspase 3, as apoptosis markers, were identified at the protein level.

[2] = system: auditory hair cells, supporting cells and spiral ganglion cells in the organ of Corti; experiment: Hematoxylin-eosin staining of the cochlea in tumor-induced ototoxic hearing loss animal model; type: in vivo, Balb/c/nu/nu mice; conditions: basal and middle turns of the cochlea; forskolin given with cisplatin
Experimental: (§1) The produced tumor-induced animal model was classified into (1) a physiological saline group (Vehicle), (2) a forskolin administration group (forskolin), (3) a cisplatin administration group (cisplatin), and (4) a cisplatin+forskolin combination administration group (cisplatin+forskolin), and each drug was administered to each group. Cisplatin was administered at 12 mg/kg 5 times a week, forskolin was administered at 2.5 mg/kg 6 times a week for a total of 2 weeks, the auditory brainstem response test was performed again 1 week after all administration was completed, and hematoxylin-eosin staining was performed for histological analysis. The auditory brainstem response (ABR) test is a method that determines the minimum stimulus level (dB) as a hearing threshold when applying tone burst sounds at 16 kHz and 32 kHz using a TDT ABR device. In addition, loss and damage of the auditory hair cells, supporting cells and spiral ganglion cells in the organ of Corti during the basal and middle turns of the cochlea were evaluated using hematoxylin-eosin staining.

[3] = system: auditory hair cells; experiment: Histological examination of the cochlea in conventional ototoxic hearing loss animal model; type: in vivo, SD (Sprague-Dawley) rats; conditions: basal and middle turns in the cochlea; cisplatin 16 mg/kg i.p.; forskolin intratympanic; after 5 days
Experimental: In order to exclude mice having congenitally abnormal hearing, a preliminary hearing test was performed on all mice before the experiment. An auditory brainstem response (ABR) test was conducted on 7-week-old SD (Sprague-Dawley) rats and then 16 mg/kg/7 ml of a cisplatin anticancer drug was administered intraperitoneally once to induce ototoxic hearing loss (FIG. 2). Before and after cisplatin administration, forskolin was intratympanically injected (IT) into one ear once in an amount of 25 μM in 20 μL a total of two times, and physiological saline containing DMSO as a control group was injected into the other ear. After 5 days, an auditory brainstem response (ABR) test and a histological examination were performed to evaluate the effect of preventing induction of forskolin-cAMP activity against ototoxic hearing loss.

[4] = system: lung cancer cell line (A549) xenograft; experiment: Cisplatin anticancer effect in tumor-induced animal model (tumor size); type: in vivo, Balb/c/nu/nu mice; conditions: intraperitoneal for 5 days, then reared for 7 days
Experimental: In order to exclude mice having congenitally abnormal hearing, a preliminary hearing test was performed on all mice before the experiment. An auditory brainstem response (ABR) test was conducted on the immunodeficient Balb/c/nu/nu mice and then a lung cancer cell line (A549) was xenografted subcutaneously into the mice to produce a tumor-induced animal model (FIG. 1). After tumor formation in the tumor-induced ototoxic hearing loss animal model of Example 1, mice were randomly classified, and then (1) physiological saline (vehicle), (2) forskolin, (3) cisplatin or (4) a combination of cisplatin and forskolin was administered intraperitoneally to the mice for 5 days, and then the mice were reared for 7 days. The average tumor volume and body weight of each group were measured every week (FIGS. 4A and 4B). In addition, the weight of each of the extracted tumor and kidney was also measured (FIG. 4E).

[5] = system: tumor-induced ototoxic hearing loss animal model; experiment: Auditory brainstem response (ABR) test in tumor-induced ototoxic hearing loss animal model; type: in vivo, Balb/c/nu/nu mice; conditions: 1 week after 2 weeks of administration, cisplatin 12 mg/kg 5 times a week, forskolin 2.5 mg/kg 6 times a week
Experimental: In order to exclude mice having congenitally abnormal hearing, a preliminary hearing test was performed on all mice before the experiment. An auditory brainstem response (ABR) test was conducted on the immunodeficient Balb/c/nu/nu mice and then a lung cancer cell line (A549) was xenografted subcutaneously into the mice to produce a tumor-induced animal model (FIG. 1).
as §1, with “device.” for “device. In addition, loss and damage of the auditory hair cells, supporting cells and spiral ganglion cells in the organ of Corti during the basal and middle turns of the cochlea were evaluated using hematoxylin-eosin staining.”

## N.N.[Cl][Pt][Cl] [cisplatin, cis-diaminedichloroplatinum (II)]
[1]
  cells killed by cisplatin ototoxicity: 40 to 50%
[1]; forskolin 20 μM, retinoic acid 50 μM
  cell viability / apoptosis (calcein staining, cleaved PARP and caspase 3): apoptosis of cisplatin-induced auditory cell lines was observed
[2]
  loss and damage of auditory outer hair cells (hematoxylin-eosin staining): a number of the auditory outer hair cells during the basal and middle turns were found to be lost
[3]
  loss of auditory hair cells (histological examination): loss of a number of auditory hair cells
[4]
  effect of reducing a tumor size compared to the control group: about 50%
[5]; 16 kHz
  hearing threshold (ABR): 29 dB
[5]; 32 kHz
  hearing threshold (ABR): 31 dB
